Measured values: patent EP0166353B1, “Benzofused lactams useful as antihypertensive agents and as cholecystokinin antagonists” (Merck & Co., Inc., priority 1984, dated 1986)
pIC50: −log10 of the molar value.

Molecular target: CCK receptor
Test: 125I-CCK-33 receptor binding assay
Details: tissue not stated (methods given for rat pancreas and guinea pig brain cortex membranes); read-out: IC₅₀, inhibition of specific ¹²⁵I-CCK-33 binding
Procedure: CCK-33 was radiolabeled with ¹²⁵I-Bolton Hunter reagent (2000 Ci/mmole) as described by Sankara et al. (J. Biol. Chem. 254: 9349-9351, 1979). Receptor binding was performed according to Innis and Snyder (Proc. Natl. Acad. Sci. 77: 6917-6921, 1980) with the minor modification of adding the additional protease inhibitors, phenylmethane sulfonyl fluoride and o-phenanthroline. The latter two compounds have no effect on the ¹²⁵I-CCK receptor binding assay.
Male Sprague-Dawley rats (200-350g) were sacrificed by decapitation. The whole pancreas was dissected free of fat tissue and was homogenized in 20 volumes of ice-cold 50 mM, Tris HCl (pH 7.7 at 25°C) with a Brinkmann Polytron PT 10. The homogenates were centrifuged at 48,000 g for 10 min. […] The supernatant was aspirated and discarded, pellets were counted with a Beckman gamma 5000. […]
Male Hartley guinea pigs (300-500g) were sacrificed by decapitation and the brains were removed and placed in ice-cold 50 mM, Tris HCl plus 7.58 g/L Trizma-7.4 (pH 7.4 at 25°C) Cerebral cortex was dissected and used as a receptor source. […] The supernatant was aspirated and discarded, pellets were counted with a Beckman gamma 5000.

CCOC(=O)C(CCc1ccccc1)NC1CCc2ccccc2N(CC(=O)COC(C)=O)C1=O (stereo not shown) [1-(3-Acetoxy-2-oxopropyl)-3-(1-carboethoxy-3-phenyl-1-propyl)amino homodihydrocarbostyril]
pIC50: 4.60
